Literature values in US20230233634A1, “PROCYANIDINS FOR THE TREATMENT OF ENDOTHELIAL DYSFUNCTION TRIGGERED BY COVID-19” (priority 2020, published 2023).

Test system: iNOS (inducible nitric oxide synthase)
Conditions: direct anti-inflammatory activity

O=C1CCC(Cc2ccc(O)c(O)c2)O1 (stereo not shown) [M1, δ-(3,4-dihydroxy-phenyl)-γ-valerolactone]
iNOS expression and nitrite production: reducing iNOS (inducible nitric oxide synthase) expression and excessive nitrite production
